Laboratory results reported in patent publication US20230218571A1 (Thiogenesis Therapeutics, Inc., priority 2020, published 2023).

What was measured:
SARS-CoV-2 [1] = experiment: Syrian hamster SARS-CoV-2 infection model; format: in vivo; details: 60, 90 or 120 mg/kg per os once a day for 7 days
Procedure: The efficacy of cysteamine-pantetheine disulfide (compound 1) is assessed in the Syrian hamster model. Maximal clinical signs of rapid breathing, weight loss, histopathological changes from the initial exudative phase of diffuse alveolar damage with extensive apoptosis to the later proliferative phase of tissue repair, airway and intestinal involvement with virus nucleocapsid protein expression, high lung viral load, and spleen and lymphoid atrophy associated with marked cytokine activation are observed within the first week of virus challenge. The lung virus titer is between 10^5-10^7 TCID50/g. Challenged index hamsters can consistently infected naïve contact hamsters housed within the same cage, resulting in similar pathology but not weight loss. All infected hamsters can recover and develop mean serum neutralizing antibody titer ≥1:427 fourteen days post-challenge. Immunoprophylaxis with early convalescent serum can achieve significant decrease in lung viral load but not in lung pathology.
Three groups of 3 Syrian hamsters infected by SARS-CoV-2 per group receive cysteamine-pantetheine disulfide (compound 1) per os once a day for 7 days. The first group receives 60 mg/kg, second group 90 mg/kg and third group 120 mg/kg. Clinical status, biological parameters and viral load are characterized every day.

SARS-CoV-2 [2] = experiment: Single-dose/multiple dose open-label study in patients with COVID-19; format: in vivo, human; details: patients infected with SARS-CoV-2, end of study
Procedure: A single-dose/multiple dose, open-labeled, non-randomized, two-period study of Cysteamine-Pantetheine Disulfide (compound 1) in […] (male and female) with COVID-19 under fasting or fed conditions is performed. Prior to treatment, patients undergo screening to determine study eligibility (Day-1).
Pharmacodynamic Evaluations: SARS-CoV-2 viral load will be obtained from samples collected from Day 0 to Day 15 according to the Schedule of Events.

[3] = administered to fasting patients; cited from earlier work

SMILES	recovery (SARS-CoV-2 [1])	symptoms of infection (SARS-CoV-2 [1])	viral load (SARS-CoV-2 [1])	risk of severe COVID-19 outcomes (pneumonitis, ARDS, respiratory failure, septic shock, organ failure, cytokine storm, death) (SARS-CoV-2 [2])	inter-patient variation in cysteamine plasma levels [3]
CC(C)(CO)[C@@H](O)C(=O)NCCC(=O)NCCSSCCN [compound 1, cysteamine-(R)-pantetheine disulfide]	more rapid recovery	less severe symptoms of infection	lower viral load	lower risk	–
NCCS [cysteamine, 2-aminoethanethiol]	–	–	–	–	up to four fold
